Measurements from patent US11945798B2, “Substituted aminopyridine compounds as EGFR inhibitors” (YUHAN CORPORATION, priority 2021, dated 2024).
Read-outs that look alike come from different tables or passages of the source.

Assays:
EGFR del19/T790M/C797S = EGFR del19/T790M/C797S (Homo sapiens, UniProt P00533, C797S/DEL746-750/T790M); assay: Biochemical EGFR kinase assay (Lance Ultra TR-FRET), del19/T790M/C797S
In short: (§1)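 Kinase activity is measured by TR-FRET phosphopeptide detection. Compounds span 0.003 μM to 10 μM; the 1 h reaction at room temperature is quenched with EDTA, then labelled antibody (2 nM) is incubated 60 min before reading.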

EGFR L858R/T790M/C797S = EGFR L858R/T790M/C797S (Homo sapiens, UniProt P00533, C797S/L858R/T790M); assay: Biochemical EGFR kinase assay (Lance Ultra TR-FRET), L858R/T790M/C797S
In short: as §1

EGFR del19/C797S = EGFR del19/C797S (Homo sapiens, UniProt P00533, C797S/DEL746-750); assay: Biochemical EGFR kinase assay (Lance Ultra TR-FRET), del19/C797S
In short: as §1

EGFR L858R/C797S = EGFR L858R/C797S (Homo sapiens, UniProt P00533, C797S/L858R); assay: Biochemical EGFR kinase assay (Lance Ultra TR-FRET), L858R/C797S
In short: as §1

EGFR wildtype (WT) = EGFR wildtype (WT) (Homo sapiens, UniProt P00533); assay: Biochemical EGFR kinase assay (Lance Ultra TR-FRET), wildtype
In short: as §1

[1] = Km ATP, read-out: IC50 del19/T790M/C797S (nM) Km ATP
[2] = Km ATP, read-out: IC50 L858R/T790M/C797S (nM) Km ATP
[3] = Km ATP, read-out: IC50 del19/C797S (nM) Km ATP
[4] = Km ATP, read-out: IC50 L858R/C797S (nM) Km ATP
[5] = Km ATP, read-out: IC50 WT (nM) Km ATP
[6] = IC50 del19/T790M/C797S (nM) 100 μM ATP, 100 μM ATP
[7] = IC50 L858R/T790M/C797S (nM) 100 μM ATP, 100 μM ATP
[8] = IC50 del19/C797S (nM) 100 μM ATP, 100 μM ATP
[9] = IC50 L858R/C797S (nM) 100 μM ATP, 100 μM ATP
[10] = IC50 WT (nM) 100 μM ATP, 100 μM ATP

EGFR del19/C797S, sequence (P00533 with tags, fused parts or gaps DEL746-750/C797S): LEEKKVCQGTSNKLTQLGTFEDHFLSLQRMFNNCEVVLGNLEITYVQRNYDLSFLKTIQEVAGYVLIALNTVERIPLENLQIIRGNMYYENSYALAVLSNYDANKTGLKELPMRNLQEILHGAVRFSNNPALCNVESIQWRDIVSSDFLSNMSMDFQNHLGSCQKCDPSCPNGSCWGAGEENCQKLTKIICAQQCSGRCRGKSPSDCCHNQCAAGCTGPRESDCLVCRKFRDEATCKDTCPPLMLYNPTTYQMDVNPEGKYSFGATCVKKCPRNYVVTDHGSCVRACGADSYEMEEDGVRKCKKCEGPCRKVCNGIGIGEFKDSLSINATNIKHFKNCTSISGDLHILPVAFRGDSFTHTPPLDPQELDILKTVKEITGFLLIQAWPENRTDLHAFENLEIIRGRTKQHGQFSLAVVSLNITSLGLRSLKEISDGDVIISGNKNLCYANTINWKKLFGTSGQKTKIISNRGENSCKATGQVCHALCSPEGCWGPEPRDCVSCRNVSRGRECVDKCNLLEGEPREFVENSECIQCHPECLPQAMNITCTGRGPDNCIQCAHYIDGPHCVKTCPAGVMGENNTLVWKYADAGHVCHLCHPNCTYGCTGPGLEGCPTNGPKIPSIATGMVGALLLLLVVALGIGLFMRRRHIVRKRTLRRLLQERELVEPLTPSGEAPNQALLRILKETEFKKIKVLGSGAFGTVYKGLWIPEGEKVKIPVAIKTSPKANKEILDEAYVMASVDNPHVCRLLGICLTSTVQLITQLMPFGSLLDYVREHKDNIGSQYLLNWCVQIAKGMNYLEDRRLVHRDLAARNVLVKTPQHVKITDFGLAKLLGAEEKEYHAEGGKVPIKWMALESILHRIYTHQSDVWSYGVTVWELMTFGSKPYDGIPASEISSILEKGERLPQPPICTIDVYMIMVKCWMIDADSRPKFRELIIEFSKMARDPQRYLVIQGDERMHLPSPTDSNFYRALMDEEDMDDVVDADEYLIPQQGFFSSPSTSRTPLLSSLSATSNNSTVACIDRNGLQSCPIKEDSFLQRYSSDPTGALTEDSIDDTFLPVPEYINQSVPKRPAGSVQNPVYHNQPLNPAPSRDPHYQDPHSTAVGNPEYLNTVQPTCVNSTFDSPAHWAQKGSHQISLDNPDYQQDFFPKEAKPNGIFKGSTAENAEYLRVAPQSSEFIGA
EGFR L858R/C797S, sequence (P00533 25-1210 C797S/L858R): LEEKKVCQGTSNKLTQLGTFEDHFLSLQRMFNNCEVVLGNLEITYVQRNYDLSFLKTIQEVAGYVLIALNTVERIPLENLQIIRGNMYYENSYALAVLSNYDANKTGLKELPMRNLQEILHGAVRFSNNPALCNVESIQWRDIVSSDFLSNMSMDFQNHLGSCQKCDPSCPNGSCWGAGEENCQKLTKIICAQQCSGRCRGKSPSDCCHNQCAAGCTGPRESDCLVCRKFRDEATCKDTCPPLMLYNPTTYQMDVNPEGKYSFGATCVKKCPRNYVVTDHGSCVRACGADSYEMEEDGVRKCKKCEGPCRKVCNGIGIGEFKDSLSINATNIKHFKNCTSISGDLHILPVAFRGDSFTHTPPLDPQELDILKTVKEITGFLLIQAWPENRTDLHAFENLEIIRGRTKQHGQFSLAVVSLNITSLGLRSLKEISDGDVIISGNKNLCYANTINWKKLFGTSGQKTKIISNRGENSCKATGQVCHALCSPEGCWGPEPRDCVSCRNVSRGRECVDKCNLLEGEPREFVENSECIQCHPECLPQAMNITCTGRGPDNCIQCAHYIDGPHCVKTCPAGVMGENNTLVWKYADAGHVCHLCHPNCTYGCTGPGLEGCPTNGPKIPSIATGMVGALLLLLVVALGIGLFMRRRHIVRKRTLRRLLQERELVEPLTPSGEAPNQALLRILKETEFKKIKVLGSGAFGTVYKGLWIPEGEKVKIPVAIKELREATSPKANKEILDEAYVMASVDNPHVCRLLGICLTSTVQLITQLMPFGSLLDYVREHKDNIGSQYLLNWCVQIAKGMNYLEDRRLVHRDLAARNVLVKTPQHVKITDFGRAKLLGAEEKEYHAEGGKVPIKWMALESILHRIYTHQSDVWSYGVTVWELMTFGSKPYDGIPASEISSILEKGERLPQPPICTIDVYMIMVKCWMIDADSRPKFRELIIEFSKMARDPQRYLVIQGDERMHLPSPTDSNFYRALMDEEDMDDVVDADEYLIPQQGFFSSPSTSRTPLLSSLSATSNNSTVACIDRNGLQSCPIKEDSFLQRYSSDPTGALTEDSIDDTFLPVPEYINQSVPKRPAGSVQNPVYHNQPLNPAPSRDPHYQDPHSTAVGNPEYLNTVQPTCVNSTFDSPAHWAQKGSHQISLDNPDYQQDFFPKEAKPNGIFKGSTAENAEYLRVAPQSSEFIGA
EGFR del19/T790M/C797S, sequence (P00533 with tags, fused parts or gaps DEL746-750/T790M/C797S): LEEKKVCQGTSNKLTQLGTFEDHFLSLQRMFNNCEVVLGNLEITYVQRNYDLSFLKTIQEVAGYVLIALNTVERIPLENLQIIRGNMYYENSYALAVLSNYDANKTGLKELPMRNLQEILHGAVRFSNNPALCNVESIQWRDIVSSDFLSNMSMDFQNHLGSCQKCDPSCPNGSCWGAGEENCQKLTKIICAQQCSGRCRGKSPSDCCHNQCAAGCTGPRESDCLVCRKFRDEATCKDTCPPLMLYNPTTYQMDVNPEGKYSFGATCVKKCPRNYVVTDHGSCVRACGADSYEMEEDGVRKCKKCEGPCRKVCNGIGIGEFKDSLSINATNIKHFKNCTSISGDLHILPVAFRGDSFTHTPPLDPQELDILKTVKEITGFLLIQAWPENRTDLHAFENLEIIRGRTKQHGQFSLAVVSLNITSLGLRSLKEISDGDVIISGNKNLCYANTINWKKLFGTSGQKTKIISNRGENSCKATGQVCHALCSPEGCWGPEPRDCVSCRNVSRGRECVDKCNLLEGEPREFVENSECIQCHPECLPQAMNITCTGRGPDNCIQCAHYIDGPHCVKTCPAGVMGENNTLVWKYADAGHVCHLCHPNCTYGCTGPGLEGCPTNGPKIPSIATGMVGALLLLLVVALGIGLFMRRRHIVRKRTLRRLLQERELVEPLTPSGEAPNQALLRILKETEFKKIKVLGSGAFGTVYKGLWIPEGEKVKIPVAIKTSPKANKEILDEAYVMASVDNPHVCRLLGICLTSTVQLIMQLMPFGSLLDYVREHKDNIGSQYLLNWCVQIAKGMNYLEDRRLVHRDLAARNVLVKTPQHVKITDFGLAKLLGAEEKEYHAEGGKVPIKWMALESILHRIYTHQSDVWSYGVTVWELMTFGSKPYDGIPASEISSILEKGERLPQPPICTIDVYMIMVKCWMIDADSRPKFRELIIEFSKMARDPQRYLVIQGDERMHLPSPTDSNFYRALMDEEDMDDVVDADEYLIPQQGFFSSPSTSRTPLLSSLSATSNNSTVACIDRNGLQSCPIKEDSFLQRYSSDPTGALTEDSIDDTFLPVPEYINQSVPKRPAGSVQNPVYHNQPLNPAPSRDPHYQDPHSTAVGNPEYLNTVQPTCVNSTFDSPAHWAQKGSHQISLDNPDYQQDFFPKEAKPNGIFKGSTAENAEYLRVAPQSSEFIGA
EGFR L858R/T790M/C797S, sequence (P00533 25-1210 T790M/C797S/L858R): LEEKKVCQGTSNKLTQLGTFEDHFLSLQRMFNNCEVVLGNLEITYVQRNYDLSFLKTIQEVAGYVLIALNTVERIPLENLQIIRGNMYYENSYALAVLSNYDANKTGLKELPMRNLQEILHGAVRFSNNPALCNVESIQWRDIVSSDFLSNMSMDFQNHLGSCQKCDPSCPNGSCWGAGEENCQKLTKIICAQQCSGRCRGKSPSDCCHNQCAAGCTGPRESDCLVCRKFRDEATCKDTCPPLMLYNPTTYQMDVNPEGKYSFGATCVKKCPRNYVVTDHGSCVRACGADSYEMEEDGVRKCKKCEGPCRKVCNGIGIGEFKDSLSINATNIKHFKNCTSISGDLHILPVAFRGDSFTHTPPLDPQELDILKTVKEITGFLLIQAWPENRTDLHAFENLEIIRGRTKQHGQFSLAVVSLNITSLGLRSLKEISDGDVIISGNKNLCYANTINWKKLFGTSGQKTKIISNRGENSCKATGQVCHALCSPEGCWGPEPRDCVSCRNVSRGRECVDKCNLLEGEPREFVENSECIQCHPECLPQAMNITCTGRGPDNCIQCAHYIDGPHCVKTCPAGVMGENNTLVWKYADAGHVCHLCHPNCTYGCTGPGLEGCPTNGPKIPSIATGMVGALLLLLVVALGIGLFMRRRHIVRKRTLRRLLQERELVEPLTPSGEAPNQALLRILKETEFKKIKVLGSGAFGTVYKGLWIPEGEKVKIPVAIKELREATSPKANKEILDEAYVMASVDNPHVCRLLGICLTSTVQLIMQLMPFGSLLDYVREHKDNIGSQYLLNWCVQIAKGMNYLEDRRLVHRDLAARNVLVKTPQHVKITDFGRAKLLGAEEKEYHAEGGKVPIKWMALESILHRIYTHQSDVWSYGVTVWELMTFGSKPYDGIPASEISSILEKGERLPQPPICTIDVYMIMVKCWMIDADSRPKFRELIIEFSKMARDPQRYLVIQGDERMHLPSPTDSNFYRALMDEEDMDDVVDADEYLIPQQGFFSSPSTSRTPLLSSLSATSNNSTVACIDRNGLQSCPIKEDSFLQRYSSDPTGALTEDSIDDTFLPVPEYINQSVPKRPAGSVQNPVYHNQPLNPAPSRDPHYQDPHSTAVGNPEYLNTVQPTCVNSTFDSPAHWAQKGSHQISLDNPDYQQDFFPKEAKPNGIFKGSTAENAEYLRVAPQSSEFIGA

IC50 (EGFR del19/T790M/C797S; [1]) [nM] | IC50 (EGFR L858R/T790M/C797S; [2]) [nM] | IC50 (EGFR del19/C797S; [3]) [nM] | IC50 (EGFR L858R/C797S; [4]) [nM] | IC50 (EGFR wildtype (WT); [5]) [nM] | IC50 (EGFR del19/T790M/C797S; [6]) [nM] | IC50 (EGFR L858R/T790M/C797S; [7]) [nM] | IC50 (EGFR del19/C797S; [8]) [nM] | IC50 (EGFR L858R/C797S; [9]) [nM] | IC50 (EGFR wildtype (WT); [10]) [nM] | SMILES
0.1 | 0.4 | 11.1 | 101 | 148 |  |  |  |  |  | CN(C)C[C@H]1CC[C@H](COc2cc(Nc3ccnc(-c4cnn(S(=O)(=O)C5CC5)c4)n3)ncc2C(=O)C2CC2)CC1 [Example 66, Cyclopropyl(6-((2-(1-(cyclopropylsulfonyl)-1H-pyrazol-4-yl)pyrimidin-4-yl)amino)-4-(((1r,4r)-4-((dimethylamino)methyl)cyclohexyl)methoxy)pyridin-3-yl)methanone]
0.2 | 0.2 | 0.7 | 4.1 | 9.3 |  |  |  |  |  | NC[C@H]1CC[C@H](CNc2cc(Nc3ccnc(-c4cnn(S(=O)(=O)C5CC5)c4)n3)ncc2C(=O)C2CC2)CC1 [Example 67, (4-((((1r,4r)-4-(Aminomethyl)cyclohexyl)methyl)amino)-6-((2-(1-(cyclopropylsulfonyl)-1H-pyrazol-4-yl)pyrimidin-4-yl)amino)pyridin-3-yl)(cyclopropyl)methanone]
1 | 0.5 | 1 | 11.8 | 14.9 |  |  |  |  |  | CC(=O)NC[C@H]1CC[C@H](CNc2cc(Nc3ccnc(-c4cnn(S(=O)(=O)C5CC5)c4)n3)ncc2C(=O)C2CC2)CC1 [Example 68, N-(((1r,4r)-4-(((5-(Cyclopropanecarbonyl)-2-((2-(1-(cyclopropylsulfonyl)-1H-pyrazol-4-yl)pyrimidin-4-yl)amino)pyridin-4-yl)amino)methyl)cyclohexyl)methyl)acetamide]
0.1 | 0.1 | 0.8 | 9.2 | 7.5 |  |  |  |  |  | CC(C)NC[C@H]1CC[C@H](CNc2cc(Nc3ccnc(-c4cnn(S(=O)(=O)C5CC5)c4)n3)ncc2C(=O)C2CC2)CC1 [Example 69, Cyclopropyl(6-((2-(1-(cyclopropylsulfonyl)-1H-pyrazol-4-yl)pyrimidin-4-yl)amino)-4-((((1r,4r)-4-((isopropylamino)methyl)cyclohexyl)methyl)amino)pyridin-3-yl)methanone]
0.3 | 0.4 | 2.7 | 14.4 | 24.2 |  |  |  |  |  | O=C(c1cnc(Nc2ccnc(-c3cnn(S(=O)(=O)C4CC4)c3)n2)cc1NC[C@H]1CC[C@H](CNC2CCCC2)CC1)C1CC1 [Example 70, (4-((((1r,4r)-4-((Cyclopentylamino)methyl)cyclohexyl)methyl)amino)-6-((2-(1-(cyclopropylsulfonyl)-1H-pyrazol-4-yl)pyrimidin-4-yl)amino)pyridin-3-yl)(cyclopropyl)methanone]
6.3 |  | 94.6 |  | 393 | 4.2 | 5.7 | 182 | 430 | > 10000 | CC(C)Nc1cc(Nc2ccnc(-c3cnn(S(=O)(=O)C4CC4)c3)n2)ncc1C(=O)NCCF [Example 74, 6-((2-(1-(Cyclopropylsulfonyl)-1H-pyrazol-4-yl)pyrimidin-4-yl)amino)-N-(2-fluoroethyl)-4-(isopropylamino)nicotinamide]
0.2 | 0.1 | 0.9 | 2.7 | 12 | 0.6 | 0.7 | 2.3 | 28.9 | > 10000 | C[C@]1(O)CC[C@@H](Nc2cc(Nc3ccnc(-c4cnn(S(=O)(=O)C5CC5)c4)n3)ncc2C(=O)NCCF)CC1 [Example 76, 6-((2-(1-(Cyclopropylsulfonyl)-1H-pyrazol-4-yl)pyrimidin-4-yl)amino)-N-(2-fluoroethyl)-4-(((1s,4s)-4-hydroxy-4-methylcyclohexyl)amino)nicotinamide]
0.2 | 0.1 | 5.6 | 9 | 57.4 | 0.9 | 1.6 | 19.3 | 145 | > 10000 | O=C(NCCF)c1cnc(Nc2ccnc(-c3cnn(S(=O)(=O)C4CC4)c3)n2)cc1N[C@H]1CC[C@@H](NCCF)CC1 [Example 77, 6-((2-(1-(Cyclopropylsulfonyl)-1H-pyrazol-4-yl)pyrimidin-4-yl)amino)-N-(2-fluoroethyl)-4-(((1s,4s)-4-((2-fluoroethyl)amino)cyclohexyl)amino)nicotinamide]
 |  |  |  |  | 0.8 | 2.4 | 72.8 | 170 | > 10000 | O=C(N[C@H]1CC[C@H](O)CC1)c1cnc(Nc2ccnc(-c3cnn(S(=O)(=O)C4CC4)c3)n2)cc1N[C@H]1CC[C@@H](NCCF)CC1 [Example 80, 6-((2-(1-(Cyclopropylsulfonyl)-1H-pyrazol-4-yl)pyrimidin-4-yl)amino)-4-(((1s,4s)-4-((2-fluoroethyl)amino)cyclohexyl)amino)-N-((1r,4r)-4-hydroxycyclohexyl)nicotinamide]
 |  |  |  |  | 9.4 | 21.5 | 146 | 903 | > 10000 | CC1(CO)CCN(c2cc(Nc3ccnc(-c4cnn(S(=O)(=O)C5CC5)c4)n3)ncc2F)CC1 [Example 85, (1-(2-((2-(1-(Cyclopropylsulfonyl)-1H-pyrazol-4-yl)pyrimidin-4-yl)amino)-5-fluoropyridin-4-yl)-4-methylpiperidin-4-yl)methanol]
0.2 | 0.1 | 1.9 | 4.3 | 47.6 | 0.2 | 0.3 | 2.9 | 52.9 | > 10000 | O=C(c1cnc(Nc2ccnc(-c3cnn(S(=O)(=O)C4CC4)c3)n2)cc1N[C@H]1CC[C@](O)(CO)CC1)C1CC1 [Example 86, Cyclopropyl(6-((2-(1-(cyclopropylsulfonyl)-1H-pyrazol-4-yl)pyrimidin-4-yl)amino)-4-(((1s,4s)-4-hydroxy-(4-hydroxymethyl)cyclohexyl)amino)pyridin-3-yl)methanone]
 |  |  |  |  | 2.2 | 4.3 | 25.3 | 442 | > 10000 | O=C(c1cnc(Nc2ccnc(-c3cnn(S(=O)(=O)C4CC4)c3)n2)cc1NC1CCC(F)(CO)CC1)C1CC1 (centres unmarked) [Example 87, Cyclopropyl(6-((2-(1-(cyclopropylsulfonyl)-1H-pyrazol-4-yl)pyrimidin-4-yl)amino)-4-((4-fluoro-4-(hydroxymethyl)cyclohexyl)amino)pyridin-3-yl)methanone]
0.1 | 0.1 | 1.6 | 2.6 | 24.6 | 0.1 | 0.2 | 2.6 | 30.7 | 3160 | CN[C@H]1CC[C@H](CNc2cc(Nc3ccnc(-c4cnn(S(=O)(=O)C5CC5)c4)n3)ncc2C(=O)C2CC2)CC1 [Example 88, Cyclopropyl(6-((2-(1-(cyclopropylsulfonyl)-1H-pyrazol-4-yl)pyrimidin-4-yl)amino)-4-((((1r,4r)-4-(methylamino)cyclohexyl)methyl)amino)pyridin-3-yl)methanone]
0.2 | 0.1 | 0.5 | 0.7 | 4.9 | 0.2 | 0.1 | 0.8 | 7.9 | 532 | CNC[C@H]1CC[C@H](CNc2cc(Nc3ccnc(-c4cnn(S(=O)(=O)C5CC5)c4)n3)ncc2C(=O)C2CC2)CC1 [Example 89, Cyclopropyl(6-((2-(1-(cyclopropylsulfonyl)-1H-pyrazol-4-yl)pyrimidin-4-yl)amino)-4-((((1r,4r)-4-((methylamino)methyl)cyclohexyl)methyl)amino)pyridin-3-yl)methanone]
